Results published in PMC11555526, “Development of 2-Aminoadenine-Based Proteolysis-Targeting Chimeras (PROTACs) as Novel Potent Degraders of Monopolar Spindle 1 and Aurora Kinases” (ACS Pharmacology & Translational Science, 2024).

Experiments:
[1] = biological target: T1, AURKB (MV4-11^AURKB-HiBiT cells) (Homo sapiens, UniProt Q96GD4); experiment: HiBiT assay, AURKB degradation; format: cell-based; design: key to Dmax (maximal degradation) AURKB: compounds with degradation less than 15% reported as “inactive”; conditions: 6 h treatment; for DC50: read-out: DC50 (half-maximal degradation concentration) AURKB
T1 construct: expressed in transfected cells; host or cells: MV4-11, lentiviral transduction (pRRL-PGK vector)
Protocol: (§1) The effects of the synthesized compounds on AURKA, AURKB, and TTK mitotic kinases were then assessed in cellular systems. For this, HiBiT cell lines were generated for all three mitotic kinases. A small 11 amino acid peptide fragment of luciferase (HiBiT) was fused to the coding sequence of the proteins and stably transduced in the MV4-11 cell line (MV4-11^AURKA-HiBiT, MV4-11^AURKB-HiBiT, and MV4-11^HiBiT-TTK).
(§2) The stable cell lines MV4-11^AURKA-HiBiT, MV4-11^AURKB-HiBiT, and MV4-11^HiBiT-TTK cells were generated by lentiviral infection. Lentivirus was produced using the respective HiBiT vector, plasmids psPAX2, and pMD2.G in HEK293 cells. The virus supernatant was filtered and MV4-11 cells were doubly infected with the supernatant. The cells were selected after 48 h of infection until the control cells were dead to get the stable cell line.
(§3) The cells stably expressing HiBiT-tagged protein were seeded into 96-well plates and treated with serial dilutions of compounds for the indicated time points. At the end point, the assay was performed using the Nano-Glo HiBiT Lytic Detection System (Promega) according to the manufacturer’s instruction. Luminescence was measured on a GloMax 96 Microplate Luminometer (Promega) or a Tecan Spark Multiplate reader (Tecan). DC50 was calculated using concentrations showing sigmoidal behavior with the dose–response (four parameters) equation in Prism (GraphPad).

[2] = biological target: T2, AURKA (MV4-11^AURKA-HiBiT cells) (Homo sapiens, UniProt O14965); experiment: HiBiT assay, AURKA degradation; format: cell-based; design: key to Dmax (maximal degradation) AURKA: compounds with degradation less than 15% reported as “inactive”; conditions: 6 h treatment, MV4-11^AURKA-HiBiT cells; for DC50: read-out: DC50 (half-maximal degradation concentration) AURKA
T2 construct: expressed in transfected cells; host or cells: MV4-11, lentiviral transduction
T2 sequence (O14965 1-403): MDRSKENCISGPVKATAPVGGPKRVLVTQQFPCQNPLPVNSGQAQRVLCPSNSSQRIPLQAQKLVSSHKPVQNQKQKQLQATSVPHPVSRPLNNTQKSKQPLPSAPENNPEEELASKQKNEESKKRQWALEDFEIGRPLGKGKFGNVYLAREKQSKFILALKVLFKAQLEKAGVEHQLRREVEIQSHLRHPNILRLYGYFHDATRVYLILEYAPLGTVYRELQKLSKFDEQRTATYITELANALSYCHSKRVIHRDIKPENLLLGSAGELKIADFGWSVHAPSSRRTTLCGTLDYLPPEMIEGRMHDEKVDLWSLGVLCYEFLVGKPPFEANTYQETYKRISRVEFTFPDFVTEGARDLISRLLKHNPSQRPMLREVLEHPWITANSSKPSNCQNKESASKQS
Protocol: as §1, §2, §3

[3] = biological target: T3, TTK (MV4-11^HiBiT-TTK cells) (Homo sapiens, UniProt P33981); experiment: HiBiT assay, TTK degradation; format: cell-based; design: key to Dmax (maximal degradation) TTK: compounds with degradation less than 15% reported as “inactive”; conditions: 6 h treatment, MV4-11^HiBiT-TTK cells; for DC50: read-out: DC50 (half-maximal degradation concentration) TTK
T3 construct: expressed in transfected cells; host or cells: MV4-11, lentiviral transduction (pRRL-PGK-HiBiT entry vector)
T3 sequence (P33981 1-857): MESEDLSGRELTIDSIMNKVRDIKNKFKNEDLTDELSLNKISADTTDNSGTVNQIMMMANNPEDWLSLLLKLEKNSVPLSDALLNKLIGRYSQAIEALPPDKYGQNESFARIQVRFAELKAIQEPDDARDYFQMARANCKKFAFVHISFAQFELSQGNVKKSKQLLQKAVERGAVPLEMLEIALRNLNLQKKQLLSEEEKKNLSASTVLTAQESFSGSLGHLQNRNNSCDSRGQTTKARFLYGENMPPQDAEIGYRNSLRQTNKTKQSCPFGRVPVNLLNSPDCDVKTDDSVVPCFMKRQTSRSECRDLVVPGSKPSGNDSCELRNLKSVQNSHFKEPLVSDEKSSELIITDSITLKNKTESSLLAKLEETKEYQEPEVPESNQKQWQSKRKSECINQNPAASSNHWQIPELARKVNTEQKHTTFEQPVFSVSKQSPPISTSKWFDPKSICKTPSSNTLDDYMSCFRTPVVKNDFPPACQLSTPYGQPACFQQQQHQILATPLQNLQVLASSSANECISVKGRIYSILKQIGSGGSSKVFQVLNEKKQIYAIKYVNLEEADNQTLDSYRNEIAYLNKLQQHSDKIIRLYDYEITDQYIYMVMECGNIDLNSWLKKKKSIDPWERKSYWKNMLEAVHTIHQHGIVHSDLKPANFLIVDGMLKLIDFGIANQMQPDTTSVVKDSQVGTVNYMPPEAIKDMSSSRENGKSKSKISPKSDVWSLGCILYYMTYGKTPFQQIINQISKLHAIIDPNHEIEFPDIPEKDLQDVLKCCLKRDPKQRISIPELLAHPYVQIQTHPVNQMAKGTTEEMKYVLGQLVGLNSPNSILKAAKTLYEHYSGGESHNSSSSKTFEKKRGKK
Protocol: as §1, §2, §3

[4] = test system: MV4-11 cells (naive); experiment: alamarBlue cell viability assay; format: cell-based, human; conditions: 72 h treatment, MV4-11 cells (naive); for EC50: read-out: EC50 (concentration that decreases cell viability by 50%)
Protocol: Finally, to study the effect of the compounds on cancer cell survival, MV4-11 cells were treated with various concentrations of the chimeras and the cell viability was assessed after 72 h. […] As opposed to the parent inhibitor MPS1-IN-3, its derivatives except 40 were not cytotoxic (Figure S7B, Table 5). […] In addition, most of the SF1-based derivatives affected the viability of MV4-11 cells in nanomolar concentrations (Table 5).
For the alamarBlue cell viability assay, cells were seeded in 96-well plates and treated with indicated concentrations of the compounds or vehicle. A few hours before the experimental end point (72 h, unless otherwise stated), the cells were incubated with the alamarBlue reagent. Finally, fluorescence (excitation: 550 nm and emission: 600 nm) or absorbance (570 nm with reference at 600 nm) was measured on a Tecan Spark Multiplate reader (Tecan).

T1 sequence (Q96GD4 1-345 isoform Q96GD4-5): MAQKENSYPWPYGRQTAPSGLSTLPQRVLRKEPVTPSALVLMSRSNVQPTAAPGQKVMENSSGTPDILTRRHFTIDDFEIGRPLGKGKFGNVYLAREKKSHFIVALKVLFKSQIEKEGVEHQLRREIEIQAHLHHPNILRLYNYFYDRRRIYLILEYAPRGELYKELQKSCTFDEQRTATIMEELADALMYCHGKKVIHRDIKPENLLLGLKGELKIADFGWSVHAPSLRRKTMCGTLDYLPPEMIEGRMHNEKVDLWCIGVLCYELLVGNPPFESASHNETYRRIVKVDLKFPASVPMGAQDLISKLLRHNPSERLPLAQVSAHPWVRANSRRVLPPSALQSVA

SMILES	Dmax (maximal degradation) AURKB [1]	DC50 [1] [nM]	Dmax (maximal degradation) AURKA [2]	DC50 [2] [nM]	Dmax (maximal degradation) TTK [3]	DC50 [3] [nM]	EC50 [4] [nM]	DC50 (half-maximal degradation concentration) AURKB [1]	DC50 (half-maximal degradation concentration) AURKA [2]	DC50 (half-maximal degradation concentration) TTK [3]	EC50 (concentration that decreases cell viability by 50%) [4]
Cc1ncsc1-c1ccc(CNC(=O)[C@@H]2C[C@@H](O)CN2C(=O)[C@@H](NC(=O)CCC(=O)NCCCNC(=O)CCC(=O)N2CCN(c3ccc(Nc4nc(NC5CCCCC5)c5nc[nH]c5n4)cc3)CC2)C(C)(C)C)cc1 [Compound 56]	29.10%	2560	39.50%	6500	34.20%	1890	6820				
COc1cc(N2CCC(OCC(=O)NCCCCNc3cccc4c3C(=O)N(C3CCC(=O)NC3=O)C4=O)CC2)ccc1Nc1nc(Nc2ccccc2S(=O)(=O)C(C)C)c2nc[nH]c2n1 (stereo not shown) [Compound 36]	inactive		inactive		inactive			– (compounds with degradation less than 25% were not calculated and reported as “–”)	– (compounds with degradation less than 25% were not calculated and reported as “–”)	– (compounds with degradation less than 25% were not calculated and reported as “–”)	— (compounds with decrease of cell viability less than 50% were not calculated and reported as “—”)
COc1cc(N2CCC(OCC(=O)N3CCN(c4cccc5c4C(=O)N(C4CCC(=O)NC4=O)C5=O)CC3)CC2)ccc1Nc1nc(Nc2ccccc2S(=O)(=O)C(C)C)c2nc[nH]c2n1 (stereo not shown) [Compound 40]	43.70%	1680	41.60%	282	23.00%		836			– (compounds with degradation less than 25% were not calculated and reported as “–”)	
CC(C)S(=O)(=O)c1ccccc1Nc1nc(Nc2ccc(N3CCN(CC(=O)Nc4cccc5c4C(=O)N(C4CCC(=O)NC4=O)C5=O)CC3)cc2)nc2[nH]cnc12 (stereo not shown) [Compound 26]	33.40%	2690	34.80%	119	28.90%	205	57				
O=C1CCC(N2C(=O)c3cccc(NC(=O)COCCOCC(=O)N4CCN(c5ccc(Nc6nc(NC7CCCCC7)c7nc[nH]c7n6)cc5)CC4)c3C2=O)C(=O)N1 (stereo not shown) [Compound 17]	36.10%	598	68.90%	239	39.40%	66	506				
COc1cc(N2CCC(OCC(=O)NCCOCCOCCNc3cccc4c3C(=O)N(C3CCC(=O)NC3=O)C4=O)CC2)ccc1Nc1nc(Nc2ccccc2S(=O)(=O)C(C)C)c2nc[nH]c2n1 (stereo not shown) [Compound 38]	inactive		inactive		16.10%			– (compounds with degradation less than 25% were not calculated and reported as “–”)	– (compounds with degradation less than 25% were not calculated and reported as “–”)	– (compounds with degradation less than 25% were not calculated and reported as “–”)	— (compounds with decrease of cell viability less than 50% were not calculated and reported as “—”)
CC(C)S(=O)(=O)c1ccccc1Nc1nc(Nc2ccc(N3CCN(CCCCC(=O)Nc4cccc5c4C(=O)N(C4CCC(=O)NC4=O)C5=O)CC3)cc2)nc2[nH]cnc12 (stereo not shown) [Compound 28]	45.95%	273	69.70%	4.85	59.05%	84.5	126				
